Laboratory results reported in patent US10844052B2, “LLS compounds for treatment of cancer” (THE REGENTS OF THE UNIVERSITY OF CALIFORNIA, priority 2016, dated 2020).

Experiments:
SKOV3 = assay: Anti-cancer activity against ovarian cancer cells SKOV3 (cell killing in solution / in vitro cell proliferation); assay type: cell-based; details: Homo sapiens, SK-OV-3, ovarian cancer cells SKOV3
Description: Biotinylated LLS2 was synthesized in solution and loaded it onto a streptavidin-coated plate. The biotinylated LLS2 immobilized on the plate killed approximately 21% of SKOV3 ovarian cancer cells at 100 μM loading, 16% at 50 μM and 14% at 25 μM (FIG. 4). The killing effect of the LLS2 compound was also tested in solution. […] In addition, LLS2 can kill pancreatic cancer cell line XPA3, prostate cancer cell line PC3, colon cancer cell line HT29, breast cancer cell line MCF7 and lung cancer cell line A549 (FIG. 4).

[1] = test system: 22RV1 prostate cancer cells; assay: Cell viability of prostate cancer 22RV1 cells after 72 hours treatment; assay type: cell-based; details: Homo sapiens

Compound	IC50 (SKOV3)	viability at 2.5 µM [1]	viability at 5 µM [1]	viability at 10 µM [1]
COc1ccc(C[C@@H](N)C(=O)NC(CC(N)=O)c2ccc3c(c2)nc(-c2cccc(Cn4ccnc4)c2)n3CCc2ccccn2)cc1 (stereo partly drawn) [LLS1, (2R)—N-(1-(2-(3-((1H-imidazol-1-yl)methyl)phenyl)-1-(2-(pyridin-2-yl)ethyl)-1H-benzo[d]imidazol-5-yl)-3-amino-3-oxopropyl)-2-amino-3-(4-methoxyphenyl)propanamide]	29.5 µM			
CC(=O)OCCN(CCOC(C)=O)c1ccc(-c2nc3cc(C(CC(N)=O)NC(=O)[C@@H](N)[C@H](C)O)ccc3n2Cc2ccc(F)c(F)c2)cc1 (stereo partly drawn) [LLS3, ((4-(5-(3-amino-1-((2S,3S)-2-amino-3-hydroxybutanamido)-3-oxopropyl)-1-(3,4-difluorobenzyl)-1H-benzo[d]imidazol-2-yl)phenyl)azanediyl)bis(ethane-2,1-diyl) Diacetate]	37.6 µM			
CCCC[C@H](N)C(=O)NC(CC(N)=O)c1ccc2c(c1)nc(-c1nccs1)n2CCN1CCCCC1 (stereo partly drawn) [LLS4, (2S)-2-amino-N-(3-amino-3-oxo-1-(1-(2-(piperidin-1-yl)ethyl)-2-(thiazol-2-yl)-1H-benzo[d]imidazol-5-yl)propyl)hexanamide]	> 50 µM			
CC(=O)OCCN(CCO)c1ccc(-c2nc3cc(C(CC(N)=O)NC(=O)[C@@H](N)Cc4ccc(Cl)c(Cl)c4)ccc3n2Cc2ccc(F)c(F)c2)cc1 (stereo partly drawn) [LLS5, 2-((4-(5-(3-amino-1-((S)-2-amino-3-(3,4-dichlorophenyl)propanamido)-3-oxopropyl)-1-(3,4-difluorobenzyl)-1H-benzo[d]imidazol-2-yl)phenyl)(2-hydroxyethyl)amino)ethyl Acetate]	18.7 µM			
CC(=O)OCCN(CCOC(C)=O)c1ccc(-c2nc3cc(C(CC(N)=O)NC(=O)[C@@H](N)Cc4ccc(Cl)c(Cl)c4)ccc3n2CC23CC4CC(CC(C4)C2)C3)cc1 (stereo partly drawn) [LLS6, ((4-(1-(((1s,3R)-adamantan-1-yl)methyl)-5-(3-amino-1-((S)-2-amino-3-(3,4-dichlorophenyl)propanamido)-3-oxopropyl)-1H-benzo[d]imidazol-2-yl)phenyl)azanediyl)bis(ethane-2,1-diyl) Diacetate]	7.8 µM			
NC(=O)CC(NCC1CCCCC1)c1ccc2c(c1)nc(-c1ccc(N3CCOCC3)cc1)n2Cc1ccc(C(F)(F)F)c(F)c1 (centres unmarked) [LLS96, 3-((cyclohexylmethyl)amino)-3-(1-(3-fluoro-4-(trifluoromethyl)benzyl)-2-(4-morpholinophenyl)-1H-benzo[d]imidazol-5-yl)propanamide]		45%	0%	0%
NC(=O)CC(NCc1ccc(Cl)c(Cl)c1)c1ccc2c(c1)nc(-c1ccc(N(CCO)CCO)cc1)n2Cc1ccc(Cl)c(C(F)(F)F)c1 (centres unmarked) [LLS97, 3-(2-(4-(bis(2-hydroxyethyl)amino)phenyl)-1-(4-chloro-3-(trifluoromethyl)benzyl)-1H-benzo[d]imidazol-5-yl)-3-((3,4-dichlorobenzyl)amino)propanamide]		23%	0%	0%
NC(=O)CC(NCC1CCCCC1)c1ccc2c(c1)nc(-c1ccc(N3CCOCC3)cc1)n2Cc1ccc(Cl)c(C(F)(F)F)c1 (centres unmarked) [LLS98, 3-(1-(4-chloro-3-(trifluoromethyl)benzyl)-2-(4-morpholinophenyl)-1H-benzo[d]imidazol-5-yl)-3-((cyclohexylmethyl)amino)propanamide]		40%	0%	0%
CN1CCN(c2ccc(-c3nc4cc(C(CC(N)=O)NCC5CCCCC5)ccc4n3Cc3ccc(Cl)c(C(F)(F)F)c3)cc2)CC1 (centres unmarked) [LLS99, 3-(1-(4-chloro-3-(trifluoromethyl)benzyl)-2-(4-(4-methylpiperazin-1-yl)phenyl)-1H-benzo[d]imidazol-5-yl)-3-((cyclohexylmethyl)amino)propanamide]		1%	0%	0%
NC(=O)CC(NCc1ccc(Cl)c(Cl)c1)c1ccc2c(c1)nc(-c1ccc(N(CCO)CCO)cc1)n2CCc1ccc(OC(F)(F)F)cc1 (centres unmarked) [LLS100]		99%	28%	0%
NC(=O)CC(NCC1CCCCC1)c1ccc2c(c1)nc(-c1ccc(N(CCO)CCO)cc1)n2Cc1ccc(Cl)c(Cl)c1 (centres unmarked) [LLS101, 3-(2-(4-(bis(2-hydroxyethyl)amino)phenyl)-1-(3,4-dichlorobenzyl)-1H-benzo[d]imidazol-5-yl)-3-((cyclohexylmethyl)amino)propanamide]		20%	1%	0%
NC(=O)CC(NCc1ccc(Cl)c(Cl)c1)c1ccc2c(c1)nc(-c1ccc(N(CCO)CCO)cc1)n2Cc1cccc2ccccc12 (centres unmarked) [LLS102, 3-(2-(4-(bis(2-hydroxyethyl)amino)phenyl)-1-(naphthalen-1-ylmethyl)-1H-benzo[d]imidazol-5-yl)-3-((3,4-dichlorobenzyl)amino)propanamide]		23%	0%	0%
NC(=O)CC(NCC1CCCCC1)c1ccc2c(c1)nc(-c1ccc(N3CCOCC3)cc1)n2Cc1cccc2ccccc12 (centres unmarked) [LLS103, 3-((cyclohexylmethyl)amino)-3-(2-(4-morpholinophenyl)-1-(naphthalen-1-ylmethyl)-1H-benzo[d]imidazol-5-yl)propanamide]		1%	0%	0%
NC(=O)CC(NCc1ccc(Cl)c(Cl)c1)c1ccc2c(c1)nc(-c1ccc(N(CCO)CCO)cc1)n2CC1CCCCC1 (centres unmarked) [LLS104, 3-(2-(4-(bis(2-hydroxyethyl)amino)phenyl)-1-(cyclohexylmethyl)-1H-benzo[d]imidazol-5-yl)-3-((3,4-dichlorobenzyl)amino)propanamide]		82%	31%	1%
NC(=O)CC(NCc1ccc(Cl)c(Cl)c1)c1ccc2c(c1)nc(-c1ccc(N(CCO)CCO)cc1)n2Cc1ccc2c(c1)OCO2 (centres unmarked) [LLS106, 3-(1-(benzo[d][1,3]dioxol-5-ylmethyl)-2-(4-(bis(2-hydroxyethyl)amino)phenyl)-1H-benzo[d]imidazol-5-yl)-3-((3,4-dichlorobenzyl)amino)propanamide]		30%	2%	0%
NC(=O)CC(NCC1CCCCC1)c1ccc2c(c1)nc(-c1ccc(N3CCOCC3)cc1)n2Cc1ccc2c(c1)OCO2 (centres unmarked) [LLS107, 3-(1-(benzo[d][1,3]dioxol-5-ylmethyl)-2-(4-morpholinophenyl)-1H-benzo[d]imidazol-5-yl)-3-((cyclohexylmethyl)amino)propanamide]		67%	4%	0%
NC(=O)CC(NCc1ccc(Cl)c(Cl)c1)c1ccc2c(c1)nc(-c1ccc(N(CCO)CCO)cc1)n2CCc1ccccn1 (centres unmarked) [LLS108, 3-(2-(4-(bis(2-hydroxyethyl)amino)phenyl)-1-(2-(pyridin-2-yl)ethyl)-1H-benzo[d]imidazol-5-yl)-3-((3,4-dichlorobenzyl)amino)propanamide]		89%	100%	101%
NC(=O)CC(NCC1CCCCC1)c1ccc2c(c1)nc(-c1ccc(N3CCOCC3)cc1)n2CCc1ccccn1 (centres unmarked) [LLS109, 3-((cyclohexylmethyl)amino)-3-(2-(4-morpholinophenyl)-1-(2-(pyridin-2-yl)ethyl)-1H-benzo[d]imidazol-5-yl)propanamide]		98%	88%	88%
